Patent US4778792A, “Use of 7-acyl benzoxazinones and their derivatives in treating atheromatous disorders” (Laboratories Negma, priority 1985, dated 1988)
Counter-ions that a name gives are not always drawn. Like-named read-outs stand apart in the source and are kept apart here.

Test: Normolipemic activity, lipid balance in normal or hypercholesterolemic mice
Type: in vivo
Settings: per os, 50 mg/kg daily for 15 days, with respect to a control group; for change in vivo at 50 mg/kg: Mus musculus, po, 360 h
Protocol: Activity of selected molecules by the Triton test in mice rendered hypercholesterolemic and normal mice: study of the lipid parameters, of the lipoprotein and apoprotein composition.
Preliminary study on the weight of the liver and histological examination of the hepatic tissue.
3.2 The normolipemic activity has also been established in OF normal mice or rendered hypercholesterolemic. The products tested were administered per os daily for 15 days at the dose of 50 mg/kg.
All the compounds were administered orally at the rate of 50 mg/kg.

[1] = read-out: CT (Total cholesterol) %
[2] = read-out: HDLC (Cholesterol fraction contained in the HDLs) %
[3] = read-out: HDLC/TC (ratio between the cholesterol contained in the HDLs and the total cholesterol) %

Row | SMILES | change in vivo at 50 mg/kg [1] | change in vivo at 50 mg/kg [2] | change in vivo at 50 mg/kg [3] | change in vivo at 50 mg/kg (read-out: Phospho Lipids) | change in vivo at 50 mg/kg (read-out: TG (Triglycerids) %) | Liver weight / Body weight
1 | CC(C)OC(=O)C(C)(C)Oc1ccc(C(=O)c2ccc(Cl)cc2)cc1 [Fenofibrate, fenofibrate, reference compound] | -30% | -11% | 30% | 18% | 24% | +55%
2 | CCCC(=O)c1ccc2c(c1)OC(C)(C)C(=O)N2C [MZ 86, 7-Butyryl 2,2,4-trimethyl benzoxazinone] | -38% | 18% | 44% | 0% | -12% | +2%
3 | CCCC(=O)c1ccc2c(c1)OC(C)(C)C(=O)N2 [MZ 95, 7-Butyryl 2,2-dimethyl benzoxazinone] | -21% | 0% | 25% | 5% | -5% | +6%
4 | CC1Oc2cc(C(=O)c3ccccc3)ccc2NC1=O (centres unmarked) [MZ 115, 7-Benzoyl 2-methyl benzoxazinone] | -32% | -5% | 17% | -9% | 18% | +9%
5 | CN1C(=O)C(C)(C)Oc2cc(C(=O)c3ccccc3)ccc21 [MZ 119, 7-Benzoyl 2,2,4 trimethyl benzoxazinone] | -30% | -6% | 21% | 15% | 21% | +12%
6 | CN1C(=O)C(C)(C)Oc2cc(C(=O)c3ccc(Cl)cc3)ccc21 [MZ 125, 7-(4-Chlorobenzoyl)2,2,4-trimethyl benzoxazinone] | -25% | 1% | 18% | 15% | 19% | +17%
7 | CC1Oc2cc(C(=O)C=Cc3ccc(Cl)cc3)ccc2N(C)C1=O (centres unmarked) [MZ 134, 7(4-Chlorocinnamoyl)2,4 dimethyl benzoxazinone] | – | 5% | 10% | 11% | -9% | +5%
8 | CN1C(=O)C(C)(C)Oc2cc(C(=O)CCCN3CCN(c4ccc(F)cc4)CC3)ccc21 [MZ 153, 7[4(4p-fluorophenylpiperazino)butyryl]2,2,4-trimethyl benzoxazinone] | -10% | 25% | 45% | 19% | 18% | +4%
9 | CN1C(=O)C(C)(C)Oc2cc(C(=O)CCN3CCOCC3)ccc21 [NM 7, 7[3-morpholinopropionyl[2'2'4 trimethylbenzoxazinone, hydrochloride] | 2% | 5% | 14% | 5% | 5% | -10%
10 | CN1C(=O)C(C)(C)Oc2cc(C(=O)CCN3CCN(c4cccc(C(F)(F)F)c4)CC3)ccc21 [NM 8, 3(4-Metatrifluoromethylphenylpiperazino)7-propionyl 2,2,4 trimethyl benzoxazinone, hydrochloride] | 8% | 10% | 11% | 8% | 23% | -15%
11 | CCCC(=O)c1ccc2c(c1)OC(C)(C)C(=O)N2CCC(=O)O [NM 11, 7-Butyryl 4-β carboxyethyl 2,2-dimethyl benzoxazinone] | -37% | 7% | 43% | 16% | -8% | 0%
